Experimental data from patent US10132796B2, “Method for detecting and quantifying a target molecule in a tissue” (IMABIOTECH, priority 2011, dated 2018).

Assay: Quantification of propranolol in a treated mouse kidney by MALDI mass spectrometry imaging
Assay type: in vivo
Settings: mouse treated with 7.5 mg/kg propranolol, sacrificed 20 minutes post-administration, kidney slices 20 μm, calibration curve from reconstituted kidney
Procedure: A mouse kidney treated with 7.5 mg/kg of propranolol, and sacrificed 20 minutes post-administration, is taken.
Three 20 μm thick tissue slices are produced from the kidney and are each deposited on a support (slide ITO).
MALDI DHB matrix (40 mg/ml methanol/TFA 0.1% 1/1) is sprayed using a robotized system (SunCollect) onto the slices.
Each slice is analysed by mass spectrometry imaging, using an Autoflex speed LRF (Bruker, Daltonics). The average intensity of the peaks of the mass spectrum of the propranolol (m/z 260.2) is computed, by once again using a number of ROIs on each slice, all dimensions being the same.
The average intensity value obtained is 19633.3.
The propranolol concentration in the kidney is quantified using the calibration curve equation (FIG. 2), by including the average intensity value obtained on said straight line. The propranolol here is in a concentration of 5.9 μg/g of tissue.

CC(C)NCC(O)COc1cccc2ccccc12 (stereo not shown) [propranolol]
propranolol concentration in the kidney: 5.9 μg/g of tissue
